Results as given in ChEMBL document CHEMBL4184140, “Expanding the tetrahydroquinoline pharmacophore” (Bioorg Med Chem Lett, 2017).
Activity calls are given as the source filed them. No cut-off for these calls is given here.

These compounds were tested on Mycobacterium tuberculosis variant bovis (assay: Antitubercular activity against Mycobacterium bovis).
Type: functional, organism-based

With `CC(=O)N1c2ccc(Br)cc2[C@H]2C=CC[C@H]2[C@H]1c1ccccc1` as the compound, how does the Activity read?
The Activity was “inactive”.

Which Activity does the source give for `CC(=O)N1c2ccccc2[C@H]2C=CC[C@H]2[C@H]1c1ccccc1` here?
The Activity was “inactive”.

For `O=[N+]([O-])c1ccc2c(c1)N[C@H](c1ccccc1)[C@@H]1C[C@H](O)[C@H](O)[C@H]21`, which Activity is on record?
The Activity was “inactive”.

`COC(=O)C[C@@H]1[C@H](C(=O)OC)c2ccccc2N(C(C)=O)[C@@H]1c1ccccc1` was tested. Which Activity did it give?
The Activity was “inactive”.

For `C1=C[C@@H]2c3ccccc3N[C@H](c3ccccc3)[C@@H]2C1`, which Activity is on record?
Its Activity is “inactive”.

For `CC(=O)N1c2cc([N+](=O)[O-])ccc2[C@H]2C=CC[C@H]2[C@H]1c1ccccc1`, which Activity is on record?
The Activity was “inactive”.

Which Activity does the source give for `CC(=O)N1c2ccccc2[C@H]2[C@@H](O)[C@@H](O)C[C@H]2[C@H]1c1ccccc1` here?
Its Activity is “inactive”.

Which Activity does the source give for `C=CCO[C@@H]1[C@@H]2c3ccccc3N(C(C)=O)[C@H](c3ccccc3)[C@@H]2C[C@H]1N=[N+]=[N-]` here?
The Activity was “inactive”.

`O[C@@H]1[C@@H]2c3ccc(F)cc3N[C@H](c3ccccc3)[C@@H]2C[C@@H]1O` was tested. Which Activity did it give?
The Activity was “inactive”.

`C=CCO[C@H]1C(n2cc(-c3ccccc3)nn2)C[C@@H]2[C@H]1c1ccccc1N(C(C)=O)[C@@H]2c1ccccc1` (single isomer, unassigned) was tested. Which Activity did it give?
The Activity was “inactive”.

How did the Activity turn out when `O=[N+]([O-])c1ccc2c(c1)N[C@H](c1ccccc1)[C@@H]1CC=C[C@H]21` was run?
The Activity was “inactive”.

Which Activity does the source give for `CC(=O)N1c2ccccc2[C@H]2[C@@H](O)[C@H](N=[N+]=[N-])C[C@H]2[C@H]1c1ccccc1` here?
The Activity was “inactive”.

For `O[C@@H]1[C@@H]2c3ccccc3N[C@H](c3ccc(Cl)cc3)[C@@H]2C[C@@H]1O`, which Activity is on record?
The Activity was “inactive”.

Which Activity does the source give for `C=CCO[C@@H]1[C@@H]2c3ccccc3N(C(C)=O)[C@H](c3ccc(Cl)cc3)[C@@H]2C[C@H]1N=[N+]=[N-]` here?
Its Activity is “inactive”.

For `CC(=O)N1c2ccccc2[C@H]2C=CC[C@H]2[C@H]1c1ccccc1C`, which Activity is on record?
Its Activity is “inactive”.

For `C=CCO[C@@H]1[C@@H]2c3ccccc3N(C(C)=O)[C@H](c3cccc(Br)c3)[C@@H]2C[C@H]1N=[N+]=[N-]`, which Activity is on record?
The Activity was “inactive”.

`CC(=O)N1c2ccccc2[C@@H]2[C@@H](C[C@@H]3O[C@H]23)[C@H]1c1ccccc1` was tested. Which Activity did it give?
The Activity was “inactive”.

For `CC(=O)N1c2cc([N+](=O)[O-])ccc2[C@@H]2[C@@H](C[C@@H]3O[C@H]23)[C@H]1c1ccccc1`, which Activity is on record?
Its Activity is “inactive”.

For `CC(=O)N1c2ccccc2[C@H]2[C@@H](O)[C@H](N=[N+]=[N-])C[C@H]2[C@H]1c1ccc(Cl)cc1`, which Activity is on record?
The Activity was “inactive”.

For `Brc1ccc2c(c1)[C@H]1C=CC[C@H]1[C@@H](c1ccccc1)N2`, which Activity is on record?
Its Activity is “inactive”.

Which Activity does the source give for `Clc1ccc([C@H]2Nc3ccccc3[C@H]3C=CC[C@H]32)cc1` here?
Its Activity is “inactive”.

`CC(=O)N1c2ccccc2[C@@H]2[C@@H](C[C@@H]3O[C@H]23)[C@H]1c1ccc(Cl)cc1` was tested. Which Activity did it give?
The Activity was “inactive”.

How did the Activity turn out when `CC(=O)N1c2ccccc2[C@@H]2[C@@H](C[C@@H]3O[C@H]23)[C@H]1c1cccc(Br)c1` was run?
The Activity was “inactive”.

Which Activity does the source give for `O[C@@H]1[C@@H]2c3cc(Br)ccc3N[C@H](c3ccccc3)[C@@H]2C[C@@H]1O` here?
Its Activity is “inactive”.

Which Activity does the source give for `O[C@@H]1[C@@H]2c3ccccc3N[C@H](c3cccc(Br)c3)[C@@H]2C[C@@H]1O` here?
The Activity was “inactive”.

With `O[C@@H]1[C@@H]2c3ccccc3N[C@H](c3ccccc3)[C@@H]2C[C@@H]1O` as the compound, how does the Activity read?
The Activity was “inactive”.

For `Fc1ccc2c(c1)N[C@H](c1ccccc1)[C@@H]1CC=C[C@H]21`, which Activity is on record?
The Activity was “inactive”.

`CC(=O)N1c2ccccc2[C@H]2[C@@H](O)[C@H](N=[N+]=[N-])C[C@H]2[C@H]1c1cccc(Br)c1` was tested. Which Activity did it give?
The Activity was “inactive”.

Which Activity does the source give for `Cc1ccccc1[C@H]1Nc2ccccc2[C@H]2C=CC[C@H]21` here?
The Activity was “inactive”.

`Brc1cccc([C@H]2Nc3ccccc3[C@H]3C=CC[C@H]32)c1` was tested. Which Activity did it give?
Its Activity is “inactive”.

Which Activity does the source give for `CC(=O)N1c2cc([N+](=O)[O-])ccc2[C@H]2[C@@H](O)[C@H](N=[N+]=[N-])C[C@H]2[C@H]1c1ccccc1` here?
Its Activity is “inactive”.

`Cc1ccccc1[C@H]1Nc2ccccc2[C@H]2[C@@H](O)[C@@H](O)C[C@H]21` was tested. Which Activity did it give?
The Activity was “inactive”.

How did the Activity turn out when `CC(=O)N1c2ccccc2[C@H]2C=CC[C@H]2[C@H]1c1cccc(Br)c1` was run?
The Activity was “inactive”.

Which Activity does the source give for `CC(=O)N1c2ccccc2[C@H]2C=CC[C@H]2[C@H]1c1ccc(Cl)cc1` here?
The Activity was “inactive”.
